This passage reports IC50 results from ChEMBL document CHEMBL1144591, “Synthesis and cytotoxicity of some new eriocalyxin B derivatives” (Eur J Med Chem, 2007).

Holding throughout (assay type): functional, cell-based
Experiment [1] in a line: Cytotoxicity against human OVCA2780 cells after 48 hrs by MTT colorimetric assay. The settings on record: A2780, 48 h.
Another experiment concerns K562. In words: Cytotoxicity against human K562 cells after 48 hrs by MTT colorimetric assay. The note with it: K562, 48 h. A general note: Formazan colour is commonly taken as a measure of viable cells.
In the next experiment the test system is DU-145. In words: Cytotoxicity against human DU145 cells after 48 hrs by MTT colorimetric assay. The settings on record: DU-145, 48 h.
A further experiment deals with A549. Put plainly: Cytotoxicity against human A549 cells after 48 hrs by MTT colorimetric assay. The settings on record: A549, 48 h.
The subject of a further experiment is MCF7. In words: Cytotoxicity against human MCF7 cells after 48 hrs by MTT colorimetric assay. The note with it: MCF7, 48 h.

Converted amounts (≈) assume the structure as drawn.

Broadly, the IC50 is the concentration that gives 50% inhibition. With `C[C@H]1C(=O)[C@]23C[C@H]1CC[C@H]2[C@@]12CO[C@@]3(O)[C@@H](O)[C@@H]1C(C)(C)CCC2=O`, the IC50 in experiment [1] is over 200 µg/mL; with K562, over 100 µg/mL; in the experiment on DU-145, over 200 µg/mL; in the experiment with A549 it was over 100 µg/mL; in the experiment with MCF7, over 200 µg/mL.

Turning to `C=C1C(=O)[C@]23C[C@H]1CC[C@H]2[C@@]12CO[C@@]3(O)[C@@H](OC(C)=O)[C@@H]1C(C)(C)C=CC2=O`, the 50% inhibitory concentration (IC50) in experiment [1] is 11.9 µg/mL (≈ 30.9 µM); in the experiment on K562, 25 µg/mL (≈ 64.7 µM); in the experiment on DU-145, 80.6 µg/mL (≈ 209 µM); with A549, 31 µg/mL (≈ 80.2 µM); in the experiment on MCF7 it was 20.1 µg/mL (≈ 51.9 µM).

For `C=C1C(=O)[C@]23C[C@H]1CC[C@H]2[C@@]12CO[C@@]3(O)[C@@H](OC(=O)CBr)[C@@H]1C(C)(C)C=CC2=O`, the IC50 was 2.06 µg/mL (≈ 4.43 µM) in experiment [1]; 1.5 µg/mL (≈ 3.22 µM) with K562; 4.52 µg/mL (≈ 9.71 µM) in the experiment with DU-145; 4.86 µg/mL (≈ 10.4 µM) with A549; 0.85 µg/mL (≈ 1.83 µM) in the experiment on MCF7.

In the case of `C=C1C(=O)[C@]23C[C@H]1CC[C@H]2[C@]1(COC(C)=O)C(=O)C=CC(C)(C)[C@H]1[C@H](OC(C)=O)C3=O`, the half-maximal inhibitory concentration (IC50) worked out at 9.71 µg/mL (≈ 22.7 µM) in experiment [1]; 28.1 µg/mL (≈ 65.6 µM) with K562; 17.9 µg/mL (≈ 41.8 µM) with DU-145; 61.8 µg/mL (≈ 144 µM) with A549; 24.6 µg/mL (≈ 57.4 µM) in the experiment on MCF7.

Regarding `C=C1C(=O)[C@]23C[C@H]1CC[C@H]2[C@]12CO[C@@H](CC1=O)C(C)(C)[C@H]2[C@H](OC(C)=O)C3=O`, the IC50 in experiment [1] turned out to be 11.3 µg/mL (≈ 29.2 µM); in the experiment with K562, 19.3 µg/mL (≈ 49.9 µM); in the experiment with DU-145 it was 31.9 µg/mL (≈ 82.5 µM); in the experiment with A549, 10.1 µg/mL (≈ 26.1 µM); in the experiment on MCF7, 36.7 µg/mL (≈ 94.9 µM).

In the case of `C=C1C(=O)[C@]23C[C@H]1CC[C@H]2[C@]12CO[C@@H](CC1=O)C(C)(C)[C@H]2[C@H](OC(=O)CBr)C3=O`, the 50% inhibitory concentration (IC50) in experiment [1] was 14.9 µg/mL (≈ 32.1 µM); with K562 it was 4.54 µg/mL (≈ 9.76 µM); in the experiment on DU-145 it was 26.6 µg/mL (≈ 57.1 µM); with A549, 10.9 µg/mL (≈ 23.4 µM); in the experiment on MCF7, 67.1 µg/mL (≈ 144 µM).

For the compound `C=C1C(=O)[C@]23C[C@H]1CC[C@H]2[C@]12CO[C@@H](CC1=O)C(C)(C)[C@H]2[C@H](OC(=O)CCCl)C3=O`, the IC50 is 10.5 µg/mL (≈ 24.1 µM) in experiment [1]; 8.88 µg/mL (≈ 20.4 µM) with K562; 51 µg/mL (≈ 117 µM) in the experiment on DU-145; 20.3 µg/mL (≈ 46.6 µM) with A549; 22.7 µg/mL (≈ 52.1 µM) with MCF7.

Consider `C=C(C(=O)O)[C@@H]1CC[C@@H]2[C@@H](C1)C(=O)C(O)=C1C(C)(C)[C@@H]3CC(=O)[C@]12CO3`, for which the concentration for half-maximal inhibition (IC50) (in experiment [1]; in the experiment with K562; with DU-145; with A549; with MCF7) was over 200 µg/mL each time.

For `C=C1C(=O)[C@]23C[C@H]1CC[C@H]2[C@]1(COC3=O)C(=O)C=CC(C)(C)[C@H]1C=O`, the half-inhibitory concentration (IC50) turned out to be 20.7 µg/mL (≈ 60.3 µM) in experiment [1]; 0.27 µg/mL (≈ 0.789 µM) with K562; 47.4 µg/mL (≈ 138 µM) in the experiment on DU-145; 2.26 µg/mL (≈ 6.6 µM) in the experiment on A549; 0.257 µg/mL (≈ 0.751 µM) in the experiment with MCF7.

Take `C=C1[C@@H]2CC[C@H]3[C@@]45CO[C@@](O)([C@@H](O)[C@@H]4C(C)(C)C=CC5=O)[C@]3(C2)[C@@H]1O`: the half-inhibitory concentration (IC50) in experiment [1] is 52.8 µg/mL (≈ 152 µM); in the experiment with K562, 33.2 µg/mL (≈ 96 µM); with DU-145, over 100 µg/mL; in the experiment with A549 it was 15.3 µg/mL (≈ 44.1 µM); in the experiment on MCF7, 83.6 µg/mL (≈ 241 µM).

Take `C=C1C(=O)[C@]23C[C@H]1CC[C@H]2[C@@]12CO[C@@]3(OC(C)=O)[C@@H](O)[C@@H]1C(C)(C)C=CC2=O`: the 50% inhibitory concentration (IC50) is 13.1 µg/mL (≈ 34 µM) in experiment [1]; 7.23 µg/mL (≈ 18.7 µM) in the experiment on K562; 74.7 µg/mL (≈ 193 µM) in the experiment on DU-145; 38.9 µg/mL (≈ 101 µM) with A549; over 100 µg/mL with MCF7.

As to `C=C1C(=O)[C@]23C[C@H]1CC[C@H]2[C@@]12CO[C@@]3(O)C(=O)[C@@H]1C(C)(C)C=CC2=O`, the half-maximal inhibitory concentration (IC50) is 7.28 µg/mL (≈ 21.3 µM) in experiment [1]; 4.94 µg/mL (≈ 14.4 µM) with K562; 12 µg/mL (≈ 35 µM) in the experiment with DU-145; 33.2 µg/mL (≈ 96.9 µM) in the experiment with A549; 59.6 µg/mL (≈ 174 µM) with MCF7.

For the compound `C=C1C(=O)[C@]23C[C@H]1CC[C@H]2[C@@]12CO[C@@]3(O)[C@@H](O)[C@@H]1C(C)(C)C=CC2=O`, the concentration for half-maximal inhibition (IC50) in experiment [1] is 1.8 µg/mL (≈ 5.23 µM); with K562 it was 1.32 µg/mL (≈ 3.83 µM); in the experiment on DU-145, 1.34 µg/mL (≈ 3.89 µM); in the experiment on A549 it was 2.49 µg/mL (≈ 7.23 µM); with MCF7, 0.15 µg/mL (≈ 0.436 µM).

On to `C=C1[C@@H]2CC[C@H]3[C@@]45CO[C@@](O)([C@@H](O)[C@@H]4C(C)(C)C=C[C@@H]5O)[C@]3(C2)[C@@H]1O`, for which the half-inhibitory concentration (IC50) in experiment [1] is over 200 µg/mL; in the experiment with K562, over 100 µg/mL; in the experiment on DU-145, over 100 µg/mL; in the experiment with A549 it was over 100 µg/mL; with MCF7, over 100 µg/mL.

As to `C=CC(=O)O[C@H]1[C@@H]2C(C)(C)C=CC(=O)[C@]23CO[C@]1(O)[C@@]12C[C@@H](CC[C@@H]31)C(=C)C2=O`, the IC50 in experiment [1] stood at 4.33 µg/mL (≈ 10.9 µM); with K562, 5.05 µg/mL (≈ 12.7 µM); with DU-145, 41.2 µg/mL (≈ 103 µM); in the experiment on A549 it was 33 µg/mL (≈ 82.8 µM); in the experiment with MCF7, 6.56 µg/mL (≈ 16.5 µM).

Consider `C=C1C(=O)[C@]23C[C@H]1CC[C@H]2[C@]1(COC3=O)C(=O)C=CC(C)(C)[C@H]1C(=O)O`, for which the IC50 in experiment [1] is over 200 µg/mL; in the experiment with K562 it was over 100 µg/mL; with DU-145 it was over 100 µg/mL; in the experiment on A549, over 100 µg/mL; in the experiment with MCF7 it was over 100 µg/mL.

Consider `C=C1C(=O)[C@]23C[C@H]1CC[C@H]2[C@]12CO[C@@H](CC1=O)C(C)(C)[C@H]2[C@H](OC(=O)CCCCl)C3=O`, for which the IC50 was 42.6 µg/mL (≈ 95 µM) in experiment [1]; over 100 µg/mL in the experiment with K562; over 100 µg/mL in the experiment with DU-145; 68.1 µg/mL (≈ 152 µM) with A549; over 100 µg/mL in the experiment with MCF7.

With `C=C(C(=O)O)[C@@H]1CC[C@@H]2[C@@H](C1)C(=O)[C@@H](O)[C@@H]1C(C)(C)[C@@H]3CC(=O)[C@@]21CO3`, the half-maximal inhibitory concentration (IC50) in experiment [1] is over 200 µg/mL; with K562 it was over 100 µg/mL; in the experiment on DU-145, over 200 µg/mL; in the experiment with A549, over 200 µg/mL; in the experiment with MCF7, over 200 µg/mL.

As for `C=C1C(=O)[C@]23C[C@H]1CC[C@H]2[C@]12CO[C@@H](CC1=O)C(C)(C)[C@H]2[C@H](O)C3=O`, the IC50 in experiment [1] was found to be 16.9 µg/mL (≈ 49.2 µM); with K562, 3.73 µg/mL (≈ 10.8 µM); in the experiment on DU-145, 33.2 µg/mL (≈ 96.3 µM); with A549, 27.2 µg/mL (≈ 79 µM); in the experiment with MCF7, 8.87 µg/mL (≈ 25.8 µM).

Take `C=C1[C@@H]2CC[C@H]3[C@@]45CO[C@@](O)([C@@H](O)[C@@H]4C(C)(C)CC[C@@H]5O)[C@]3(C2)[C@@H]1O`: the half-maximal inhibitory concentration (IC50) in experiment [1] was over 200 µg/mL; in the experiment on K562, over 100 µg/mL; in the experiment on DU-145, over 100 µg/mL; with A549 it was over 100 µg/mL; in the experiment with MCF7, over 100 µg/mL.
